Reference: ChEMBL document CHEMBL1201861, “Genomics of Drug Sensitity in Cancer screening data, Wellcome Trust Sanger Institute”

What was measured:
Assay in all cases: cells
NMC-G1 = format: functional, cell-based, Homo sapiens; conditions: Homo sapiens, NMC-G1;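 note: growth inhibition of the NMC-G1 cell line, measured with a cell viability read-out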
D283 Med = format: functional, cell-based, Homo sapiens; conditions: Homo sapiens, D283 Med
Becker = format: functional, cell-based, Homo sapiens; conditions: Homo sapiens, Becker;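 note: growth inhibition of Becker cells, read out with a cell viability assay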
RH-1 = format: functional, cell-based, Homo sapiens; conditions: Homo sapiens, RH-1;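 note: growth inhibition of human RH-1 cells, read out with a cell viability assay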
KG-1 = format: functional, cell-based; conditions: Homo sapiens;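 note: growth inhibition of KG-1 cells, read out by a cell viability assay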
U-266 = format: functional, cell-based; conditions: Homo sapiens
JVM-2 = format: functional, cell-based; conditions: Homo sapiens;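 note: growth inhibition of JVM-2 cells determined by a cell viability assay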
NCI-H747 = format: functional, cell-based; conditions: Homo sapiens;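 note: growth inhibition of human NCI-H747 cells, read out by a cell viability assay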
GAK = format: functional, cell-based, Homo sapiens; conditions: Homo sapiens, GAK;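 note: cell growth inhibition read out by a cell viability assay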
NCI-H209 = format: functional, cell-based; conditions: Homo sapiens;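 note: growth inhibition of human NCI-H209 cells, measured by a cell viability assay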
DMS-79 = format: functional, cell-based; conditions: Homo sapiens;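 note: growth inhibition measured with a cell viability assay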
MLMA = format: functional, cell-based, Homo sapiens; conditions: Homo sapiens, MLMA;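 note: growth inhibition of MLMA cells (human), determined through a cell viability readout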
Ramos-2G6-4C10 = format: functional, cell-based; conditions: Homo sapiens;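 note: growth inhibition of the cell line, measured by a cell viability read-out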
A704 = format: functional, cell-based, Homo sapiens; conditions: Homo sapiens, A704;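 note: growth inhibition of human A704 cells, read out with a cell viability assay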
TE-12 = format: functional, cell-based; conditions: Homo sapiens;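 note: growth inhibition of TE-12 cells, read out by a cell viability assay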
Mo = format: functional, cell-based; conditions: Homo sapiens
SNU-C2B = format: functional, cell-based, Homo sapiens; conditions: Homo sapiens, SNU-C2B;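 note: cell viability readout used to measure compound-driven suppression of SNU-C2B cell proliferation, IC50 marking half-maximal growth inhibition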
KGN = format: functional, cell-based, Homo sapiens; conditions: Homo sapiens, KGN;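 note: growth inhibition of KGN cells, read out with a cell viability assay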
D-336MG = format: functional, cell-based, Homo sapiens; conditions: Homo sapiens, D-336MG
NCI-H1304 = format: functional, cell-based; conditions: Homo sapiens;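 note: growth inhibition of the cancer cell line, measured in a cell viability assay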
KARPAS-45 = format: functional, cell-based; conditions: Homo sapiens;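 note: inhibition of cell line growth, read out through a viability assay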
HC-1 = format: functional, cell-based; conditions: Homo sapiens;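 note: growth inhibition of HC-1 cells measured by a cell viability assay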
SF-126 = format: functional, cell-based, Homo sapiens; conditions: Homo sapiens, SF-126;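 note: growth inhibition of human SF126 cells, read out with a cell viability assay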
HCC2157 = format: functional, cell-based; conditions: Homo sapiens;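 note: growth inhibition of the cancer cell line, read out as cell viability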
AM-38 = format: functional, cell-based, Homo sapiens; conditions: Homo sapiens, AM-38;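 note: growth inhibition of AM-38 cells of human origin, read out by a cell viability assay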
NCI-H82 = format: functional, cell-based; conditions: Homo sapiens;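 note: growth inhibition of NCI-H82 cells, measured with a cell viability readout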
EW-18 = format: functional, cell-based; conditions: Homo sapiens;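 note: growth inhibition of EW-18 cells, read out by a cell viability assay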
D-542MG = format: functional, cell-based, Homo sapiens; conditions: Homo sapiens, D-542MG

SMILES | IC50 (NMC-G1) | IC50 (D283 Med) | IC50 (Becker) | IC50 (RH-1) | IC50 (KG-1) | IC50 (U-266) | IC50 (JVM-2) | IC50 (NCI-H747) | IC50 (GAK) | IC50 (NCI-H209) | IC50 (DMS-79) | IC50 (MLMA) | IC50 (Ramos-2G6-4C10) | IC50 (TE-12) | IC50 (Mo) | IC50 (KGN) | IC50 (D-336MG) | IC50 (NCI-H1304) | IC50 (KARPAS-45) | IC50 (HC-1) | further results
CN1CCN(CCOc2cc(OC3CCOCC3)c3c(Nc4c(Cl)ccc5c4OCO5)ncnc3c2)CC1 [SARACATINIB] | […] | […] | […] | […] | […] | […] | […] | […] | […] | […] | […] | […] | […] | 327 nM | […] | 1280 nM | 503 nM | […] | […] | […] | IC50 (A704): 892 nM; IC50 (SNU-C2B): […]; IC50 (SF-126): […]; IC50 (HCC2157): […]; IC50 (AM-38): […]; IC50 (NCI-H82): […]; IC50 (EW-18): […]
CO[C@H]1C[C@@H]2CC[C@@H](C)[C@@](O)(O2)C(=O)C(=O)N2CCCC[C@H]2C(=O)O[C@H]([C@H](C)C[C@@H]2CC[C@@H](O)[C@H](OC)C2)CC(=O)[C@H](C)/C=C(\C)[C@@H](O)[C@@H](OC)C(=O)[C@H](C)C[C@H](C)/C=C/C=C/C=C/1C [SIROLIMUS] | 33.7 nM | > 100 nM | 41.1 nM | > 100 nM | > 100 nM | > 100 nM | > 100 nM | > 100 nM | > 100 nM | 87.4 nM | > 100 nM | > 100 nM | 1.46 nM | > 100 nM | > 100 nM | 96.3 nM | > 100 nM | 57.2 nM | > 100 nM | > 100 nM | IC50 (A704): > 100 nM; IC50 (SNU-C2B): > 100 nM; IC50 (SF-126): 30.4 nM; IC50 (HCC2157): > 100 nM; IC50 (AM-38): > 100 nM; IC50 (NCI-H82): > 100 nM; IC50 (EW-18): > 100 nM
CNC(=O)c1cc(Oc2ccc(NC(=O)Nc3ccc(Cl)c(C(F)(F)F)c3)cc2)ccn1 [SORAFENIB] | […] | […] | […] | […] | 1480 nM | […] | […] | […] | […] | […] | […] | […] | […] | […] | […] | […] | […] | […] | […] | […] | IC50 (D-542MG): […]; IC50 (SF-126): 1640 nM; IC50 (HCC2157): […]; IC50 (AM-38): […]; IC50 (NCI-H82): […]; IC50 (EW-18): […]
CCC(=O)N1CCN(c2ccc(-n3c(=O)ccc4cnc5ccc(-c6cnc7ccccc7c6)cc5c43)cc2C(F)(F)F)CC1 [TORIN1] | 34.5 nM | > 1200 nM | 64.2 nM | 280 nM | > 1200 nM | 132 nM | > 1200 nM | 23.3 nM | 31.9 nM | 230 nM | > 1200 nM | 67.8 nM | 27.5 nM | 25.5 nM | > 1200 nM | 13.6 nM | 266 nM | > 1200 nM | 782 nM | 58.3 nM | IC50 (A704): 97.4 nM; IC50 (SNU-C2B): 243 nM; IC50 (SF-126): 43.6 nM; IC50 (HCC2157): 340 nM; IC50 (AM-38): > 1200 nM; IC50 (NCI-H82): 141 nM; IC50 (EW-18): > 1200 nM
Cc1cc(Nc2cc(N3CCN(C)CC3)nc(Sc3ccc(NC(=O)C4CC4)cc3)n2)n[nH]1 [TOZASERTIB] | […] | […] | […] | […] | […] | […] | […] | […] | […] | […] | […] | […] | […] | […] | […] | 900 nM | […] | 1830 nM | […] | […] | IC50 (A704): […]; IC50 (SNU-C2B): […]; IC50 (SF-126): 948 nM; IC50 (HCC2157): […]; IC50 (AM-38): […]; IC50 (NCI-H82): […]; IC50 (EW-18): […]
